Patent US20150087610A1, “Method of Modifying Fertility” (Monell Chemical Senses Center, priority 2012, published 2015)
“Also recorded” adds a separate entry of the source.

Key:
[1] = tested on: sperm isolated from the Gnat3−/−mutant mice; test: Calcium imaging of sperm from Gnat3−/− mutant mice; assay type: cell-based, mouse; details: 2 mM
Protocol: (§1) Eight adult male mice of each genotype: C57BL/6 and Gnat^−/− mice, were sacrificed, and the testis and caudal epididymis were immediately removed and transferred into HS solution containing (mM): 135 NaCl, 5 KCl, 2 CaCl2, 1 MgCl2, 30 Hepes, 10 glucose, 10 lactic acid, and 1 pyruvic acid (pH adjusted to 7.4 with NaOH) (Xia et al., 2007). For isolation of spermatids, seminiferous tubules from mouse testicle were dissected out and placed in a […] containing 3 ml of HS medium. The tissue was finely minced and gently triturated with a fire-polished pipette, and the mixture was filtered with a 100 μm nylon cell strainer (BD Falcon, Bedford, Mass.). The dissociated cells were collected in a 1.5 ml plastic tube, and washed once in HS medium by centrifugation at 300 g for 4 min and resuspended in HS medium.
(§2) For isolation of epididymal spermatozoa, three incisions were made to the caudal epididymis, which was incubated in a 1.5-ml tube containing 1 ml of HS medium and 5 mg/ml bovine serum albumin (BSA) in a 5% CO2 incubator at 37° C. for 20 minutes (Xia et al., 2007). Sperm cells released into the medium were collected from top 0.1 ml, which were adjusted to 1×10^7 cells/ml HS medium.
(§3) Mouse spermatogenic cells were loaded with 5 μM acetoxymethylester of Fura-2 (Fora-2/AM) and 80 μg/ml pluronic F127 (Molecular Probes, Eugene, Oreg.) and transferred onto coverslips (22×60 mm, No. 0, Thomas Scientific Co.) for at least 1 hour at room temperature. The coverslip with spermatogenic cells was mounted in a recording chamber and superfused with HS or HS containing tasting compounds or the bitter blocker probenecid (Sigma-Aldrich, St. Louis, Mo.) via a valve controller (VC-8, Warner, USA).
(§4) Imaging of calcium responses was conducted as previously described (Gomez et al, 2005). Stimulation duration was 30 seconds and perfusion rate was 0.8 ml/min. Cells were excited at 340 nm and 380 nm and signals at 510 nm were captured by a cooled CCD camera. The change in fluorescence ratio (F=F340/F380) was recorded for regions-of-interest drawn on the cells.

[2] = tested on: mouse spermatids; test: Calcium imaging of mouse spermatids with bitter tastants; assay type: cell-based; details: for cells responding with increased intracellular calcium: 29 cells; for calcium response in the principal piece: compared with acrosome and midpiece; for increase in intracellular calcium, acrosome versus midpiece: subcellular areas; for number of cells responding: out of 29 cells
Protocol: as §1, §3, §4
(§5) To analyze the dose-dependent calcium responses, the response intensity (FN) was normalized and expressed as ΔF/F0 value: ΔF/F0=(F−F0)/F0. Here F0 is the fluorescence at the beginning of stimulation, i.e., time 0, and F is the peak fluorescence ratio evoked by the stimulation. Dose-response curves and EC50 values were generated based on the normalized responses using the software Origins by nonlinear regression.

[3] = target: human Tas2r38 (Homo sapiens, UniProt P59533); details: cited from earlier work
[4] = tested on: epididymal sperm cells; test: Calcium imaging of mouse epididymal sperm cells with bitter tastants; assay type: cell-based; details: for calcium responses from the principal pieces / # CELLS RESPONDED / amplitudes of the responses from the acrosome and midpiece: epididymal sperm; for cells responding with calcium responses: 49 cells; for amplitudes of the responses from the acrosome and midpiece: subcellular areas
Protocol: as §2, §3, §4, §5

[5] = tested on: C57B/6L wild-type sperm; test: Bitter blocker probenecid on calcium responses of wild-type mouse sperm; assay type: cell-based; details: 300 μM PTC alone
Protocol: as §3, §4
To confirm whether the germ cells' responses to bitter tastants were mediated by the bitter taste receptors, we examined the effect of the bitter taste receptor blocker probenecid (Greene et al, 2001) and nullification of the α-gustducin gene in Gnat3 α-gustducin knockout mice described in Wong et al, 1996. Probenecid is known to inhibit the responses of human T2R16, 38 and 43 to salicin, PTC and PROP, and aloin, but not that of T2R31 to saccharin (Greene et al, 2011).

[6] = spermatids, response profile 1, total 29 cells
[7] = spermatids, response profile 3, total 29 cells
[8] = spermatids, response profile 5, total 29 cells
[9] = FIG. 6, epididymal sperm Cell 1
[10] = FIG. 6, epididymal sperm Cell 3
[11] = FIG. 6, epididymal sperm Cell 4
[12] = response profile 1, total 49 cells
[13] = response profile 2, total 49 cells
[14] = response profile 3, total 49 cells
[15] = response profile 4, total 49 cells
[16] = response profile 5, total 49 cells
[17] = response profile 7, total 49 cells
[18] = response profile 8, total 49 cells
[19] = response profile 10, total 49 cells
[20] = spermatids, response profile 2, total 29 cells
[21] = spermatids, response profile 6, total 29 cells
[22] = response profile 6, total 49 cells
[23] = response profile 11, total 49 cells
[24] = spermatids, response profile 4, total 29 cells
[25] = FIG. 6, epididymal sperm Cell 5
[26] = response profile 9, total 49 cells

| SMILES | calcium response of Gnat3−/− sperm [1] | cells responding with increased intracellular calcium ([2]; spermatids) [%] | # CELLS RESPONDED [2, 6] | # CELLS RESPONDED [2, 7] | calcium response of individual cell [4, 9] | calcium response of individual cell [4, 11] | calcium responses from the principal pieces [4] | cells responding with calcium responses ([4]; epididymal sperm cells) | # CELLS RESPONDED [4, 12] | # CELLS RESPONDED [4, 13] | # CELLS RESPONDED [4, 14] | # CELLS RESPONDED [4, 15] | # CELLS RESPONDED [4, 16] | # CELLS RESPONDED [4, 17] | # CELLS RESPONDED [4, 18] | amplitudes of the responses from the acrosome and midpiece [4] | calcium response in the principal piece ([2]; spermatids) | # CELLS RESPONDED [2, 20] | increase in intracellular calcium, acrosome versus midpiece ([2]; spermatids) | # CELLS RESPONDED [4, 22] | other results |
| --- | --- | --- | --- | --- | --- | --- | --- | --- | --- | --- | --- | --- | --- | --- | --- | --- | --- | --- | --- | --- | --- |
| Nc1ncnc2c1ncn2[C@@H]1O[C@H](COP(=O)(O)OP(=O)(O)OP(=O)(O)O)[C@@H](O)[C@H]1O [ATP] | normal; also recorded: did respond | – | – | – | – | – | – | – | – | – | – | – | – | – | – | – | – | – | – | – | – |
| CCCc1cc(=O)[nH]c(=S)[nH]1 [PROP, 6-propyl-2 thiouracil] | unresponsive; also recorded: did not respond | 27.6 | 3 | 1 | responded | responded weakly | mostly undetectable | about 61.2% | 4 | 13 | 1 | 1 | 4 | 1 | 1 | equally strong | – | – | – | – | EC50 ([2]; mouse spermatids, Fura-2 calcium imaging, normalized ΔF/F0, read-out: EC50 of calcium response): 24 ± 12 µM; # CELLS RESPONDED [2, 8]: 1; # CELLS RESPONDED ([2]; spermatids, response profile 9, total 29 cells): 3; calcium response at low concentrations ([2]; spermatids, 0.01, 0.1 and 1 μM): No responses; EC50 ([3]; four responding variants of the receptor): 2 to 4 µM; response of receptor variants ([3]; two of six variants): unresponsive; calcium response of individual cell [4, 10]: weakly; # CELLS RESPONDED [4, 19]: 5 |
| NC(=S)Nc1ccccc1 [PTC, N-phenylthiourea] | unresponsive; also recorded: did not respond | – | 3 | 1 | responded | – | mostly undetectable | – | 4 | 13 | – | 1 | – | 1 | 1 | equally strong | detectable but much smaller | 1 | much larger in the acrosome than in the midpiece | 1 | # CELLS RESPONDED [2, 21]: 1; # CELLS RESPONDED ([2]; spermatids, response profile 10, total 29 cells): 3; increase in the intracellular calcium concentration [5]: significant; # CELLS RESPONDED [4, 23]: 1 |
| C[C@@H]1C[C@@H]([C@H](O)CC2CC(=O)NC(=O)C2)C(=O)[C@@H](C)C1 [cycloheximide] | did not respond | 62.1 | 3 | 1 | responded | responded weakly | mostly undetectable | 93.9% | 4 | 13 | 1 | 1 | 4 | 1 | – | equally strong | – | 1 | – | 1 | number of cells responding ([2]; spermatids): 18; # CELLS RESPONDED [2, 24]: 7; # CELLS RESPONDED [2, 8]: 1; # CELLS RESPONDED ([2]; spermatids, response profile 7, total 29 cells): 5; calcium response of Gnat3−/− sperm ([1]; listed as cyclohexmide): unresponsive; calcium response of individual cell ([4]; FIG. 6, epididymal sperm Cell 2): responded only; calcium response of individual cell [4, 10]: responded; calcium response of individual cell [4, 25]: responded weakly; number of cells responding ([4]; epididymal sperm cells, out of 49 cells): 46; # CELLS RESPONDED [4, 26]: 1; # CELLS RESPONDED [4, 19]: 5; # CELLS RESPONDED ([4]; response profile 12, total 49 cells): 15 |
| CC[N+](CC)(CC(=O)Nc1c(C)cccc1C)Cc1ccccc1 [denatonium] | unresponsive; also recorded: did not respond | 55.2 | 3 | – | responded | responded weakly | mostly undetectable | ~53.1% | 4 | 13 | 1 | – | 4 | – | 1 | equally strong | detectable but much smaller | 1 | much larger in the acrosome than in the midpiece | 1 | # CELLS RESPONDED [2, 24]: 7; # CELLS RESPONDED [2, 21]: 1; # CELLS RESPONDED ([2]; spermatids, response profile 8, total 29 cells): 4; calcium response of individual cell [4, 25]: responded weakly; # CELLS RESPONDED [4, 26]: 1; # CELLS RESPONDED [4, 23]: 1 |
| CCN(CC)CCNC(=O)c1ccc(N)cc1 [procainamide] | – | – | – | – | – | – | – | – | – | – | – | – | – | – | – | – | detectable but much smaller | – | much larger in the acrosome than in the midpiece | – | – |
| OCc1ccccc1O[C@@H]1O[C@H](CO)[C@@H](O)[C@H](O)[C@H]1O [salicin] | unresponsive; also recorded: did not respond | – | – | – | – | – | – | about 14.3% | 4 | – | 1 | 1 | – | – | – | – | – | – | – | – | number of cells responding ([2]; spermatids): No spermatids were found to respond; frequency of responsive cells ([4]; FIG. 6, epididymal sperm): rare; # CELLS RESPONDED ([4]; response profile 13, total 49 cells): 1 |
